According to patent publication US7416870B2, “Methods of directing C-O bond formation utilizing a type II polyketide synthase system” (Wisconsin Alumni Research Foundation, priority 2002, dated 2008):

How the values were obtained:
NonL = experiment: In vitro assay of NonL as a CoA ligase (conversion of acids to CoA esters, HPLC); type: biochemical, Streptomyces griseus
From the text: Expression of nonL and characterization of NonL as a CoA ligase. The nonL gene was amplified from pBS2013 by PCR with forward primer of 5′-[…]-3′ (SEQ ID NO:12) (the NdeI site is underlined) and reverse primer of 3′-[…]-5′ (SEQ ID NO:13)(the EcoRI site is underlined) and cloned as a 1.7-kb NdeI-EcoRI fragment into the same sites of pET28a (Novagen, Madison, Wis.) to yield pBS2023. The expression of nonL in E. coli BL-21 (DE-3) (pBS2023) and purification of the resulting NonL protein by affinity chromatography on Ni-NTA resin were carried out under the standard conditions recommended by Novagen (FIG. 10). The incubation temperature was lowered to 15° C. to improve the solubility.
For in vitro assay of NonL as a CoA ligase, the complete assay solution (50 μl) consisted of 2 mM ATP, 2 mM CoA, 2 mM (±)-3, 10 mM KCl, 2 mM DTT, 5 mM MgCl2, 50 to 800 nM NonL in 10 mM Tris-HCl, pH 8.0. The reaction mixture was incubated at 30° C. for 2 hr and analyzed by HPLC on an Alltima C18 column (4.6×250 mm, 5μ, 100 Å, Alltech, Deerfield, Ill.). The column was first eluted in 20 mM NH4Ac, pH 5.8, for 5 min, followed by linear gradient from 0% to 50% CH3CN in 20 mM NH4Ac, pH 5.8 for 10 min, and maintained at 50% CH3CN in 20 mM NH4Ac for an additional 10 min, with flow rate of 0.8 ml/min and detection at 260 nm.
On the basis of its high sequence homology to a family of CoA ligases, the inventors reasoned that NonL, rather than directly contributing to the C—O bond-forming steps, instead activates (±)-3 into CoA esters (±)-2 that are then tetramerized into 1 by the NonJK KSs. To validate this hypothesis, the inventors expressed nonL in E. coli, purified NonL as a His6-tagged fusion protein (FIG. 10), and characterized NonL as a CoA ligase. The inventors monitored the in vitro assay of NonL by HPLC analysis: NonL catalyzes the conversion of (±)-3 to (±)-2, requiring CoA and ATP as co-substrates. Under the condition examined, 80% of (±)-3 was converted to (±)-2 in 2 hrs, confirming that NonL recognizes both (+)- and (−)-3 as substrates (FIG. 7). The identity of (±)-2 was verified by ESI-MS, yielding a characteristic (M−2H)^2− ion at m/z=474.7, consistent with the molecular formula of C31H52N7O19P3S.
In this particular experiment, the inventors expanded the category of synthetic 8 derivatives to determine the degree of flexibilities of each process in macrotetrolide biosynthesis. With minor modifications in the previously described method, (±)-8-n-propyl-nonactate (8), (±)-epi-8-n-propyl-nonactate (A), (±)-2-n-propyl-nonactate (B), and (±)-epi-2-n-propyl-nonactate (C) were prepared. These four compounds were tested for the CoA-activated by using purified NonL. […] The chromosomal DNA fragment encompassing nonJ and nonL from S. griseus DSM40695 was subcloned into pIJ4123 under the control of thiostrepton inducible promoter (tipAp) to generate pBS2045 that was introduced into S. lividans TK-24. For pIJ4123, see the reference; Takano, E.; White, J.; Thompson, C. J.; Bibb, M. J. Gene 1995, 160, 133.

NonJ = experiment: Dimer formation with cell-free extract of S. lividans (pBS2045) harboring nonL and nonJ; type: biochemical, Streptomyces griseus; details: CFE of S. lividans (pBS2045)
Sequence of NonJ (as listed by the source): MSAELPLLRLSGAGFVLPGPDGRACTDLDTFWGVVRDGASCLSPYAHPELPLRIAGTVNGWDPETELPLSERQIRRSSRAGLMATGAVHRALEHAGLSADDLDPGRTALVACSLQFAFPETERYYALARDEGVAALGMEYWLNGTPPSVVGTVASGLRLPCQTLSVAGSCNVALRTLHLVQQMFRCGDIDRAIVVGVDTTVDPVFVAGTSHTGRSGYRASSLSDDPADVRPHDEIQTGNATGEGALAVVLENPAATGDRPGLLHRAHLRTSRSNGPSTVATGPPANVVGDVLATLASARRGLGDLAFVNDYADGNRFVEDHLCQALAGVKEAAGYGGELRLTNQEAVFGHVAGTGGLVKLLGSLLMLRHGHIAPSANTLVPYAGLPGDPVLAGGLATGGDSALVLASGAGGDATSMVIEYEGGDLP
Description: Cell-free extract (CFE) preparation: S. lividans (pBS2045) were grown on Yeast Extract-Malt Extract (YEME, 34% sucrose) media supplemented with kanamycin (50 μg/ml), at 30° C. and 300 rpm for 1 d and added with thiostrepton (5 μg/ml). The thiostrepton-treated culture was maintained in the same condition for 1 d and then harvested by centrifugation (13,600 g, 20 min, 4° C.). Cell were lysed in 30 ml of 100 mM sodium phosphate buffer (pH, 8.0)-1 mM EDTA-50 mM KCl-10% glycerol with lysozyme (2 mg/ml) for 30 min at 4° C., sonicated for thirty 10-sec bursts at 300 W with a 30-sec cooling period between each burst. […]
Conditions for CFE-assay and chemical analysis: The assay solution consisted of 1 to 2 mM each of (±)-6, CoA, and ATP and 0.8 mg/ml of protein in 10 mM Tris-Cl (pH, 8.0)-10 mM KCl-2 mM DTT-5 mM MgCl2, and incubated at 30° C. for 1 h to 3 hs. […] The organic layer was analyzed for 1 by Thin-Layer Chromatography (TLC), Evaporative Light-Scattering Detector (ELSD)-High Performance Liquid Chromatography (HPLC), and positive Matrix-Assisted Laser Desorption Ionization (MALDI)-Mass Spectrometry (MS) analysis as previously described.^5d The aqueous layer was analyzed by HPLC with UV-detection, from which relevant peaks were collected and subjected to negative MALDI-MS analysis. […]

| Molecule | conversion of (±)-3 to (±)-2 by NonL (NonL; in 2 hrs, 30° C., 2 mM ATP, 2 mM CoA, 2 mM (±)-3) | conversion into CoA derivative by purified NonL (NonL) | dimer (dimeric CoA ester) formation by NonJ (NonJ) |
| --- | --- | --- | --- |
| CC(O)CC1CCC(C(C)C(=O)O)O1 (racemic) [(±)-3, nonactic acid] | 80% | – | – |
| (±)-2-n-propyl-nonactate [B] | – | no conversion was evident | – |
| (±)-8-n-propyl nonactate [compound 8] | – | efficiently converted | converted the dimeric 8-CoA |
| (±)-epi-2-n-propyl-nonactate | – | no conversion was evident | – |
| (±)-epi-8-n-propyl-nonactate | – | efficiently converted | no dimeric A-CoA was found |
